According to patent US20260242362A1, “PREPARATION OF 3,4,5-TRISUBSTITUTED TRIAZOLES AND METHODS OF USING THE SAME” (University of Florida Research Foundation, Incorporated, priority 2023, published 2026):

Experiments:
kappa opioid receptor [1] = biological target: T1, kappa opioid receptor (Homo sapiens, UniProt P41145); assay: GTPγS binding assay (G-protein activation); type: biochemical; settings: for EC50: 3 parameter nonlinear regression, nc = did not converge
Target sequence in this assay (P41145 whole entry, the tested form may be a part): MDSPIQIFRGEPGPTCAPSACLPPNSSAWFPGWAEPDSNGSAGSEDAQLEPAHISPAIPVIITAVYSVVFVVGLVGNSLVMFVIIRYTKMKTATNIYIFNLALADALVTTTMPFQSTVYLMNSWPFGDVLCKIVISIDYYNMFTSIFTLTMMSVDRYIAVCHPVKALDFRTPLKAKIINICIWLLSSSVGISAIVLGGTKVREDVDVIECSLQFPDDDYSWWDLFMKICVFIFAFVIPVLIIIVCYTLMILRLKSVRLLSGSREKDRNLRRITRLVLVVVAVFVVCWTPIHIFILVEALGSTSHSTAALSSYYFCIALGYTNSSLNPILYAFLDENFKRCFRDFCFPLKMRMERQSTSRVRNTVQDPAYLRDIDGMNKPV

kappa opioid receptor [2] = biological target: T1, kappa opioid receptor; assay: PathHunter DiscoverX β-arrestin2 recruitment (enzyme fragment complementation) assay; type: cell-based; settings: for EC50: 3 parameter nonlinear regression, nc = did not converge, read-out: β-arrestin2 EC50; for β-arrestin2 Emax (% U60): relative to U69,593 = 100% Emax, ~ did not plateau at 100%; for β-arrestin2 maximum stimulation observed at 10 μM (starred Emax cells / % max at 10 uM): * compounds that did not reach plateau
Target sequence in this assay (P41145 whole entry, the tested form may be a part): as above
Target sequence in this assay (P32121 whole entry partner, the tested form may be a part): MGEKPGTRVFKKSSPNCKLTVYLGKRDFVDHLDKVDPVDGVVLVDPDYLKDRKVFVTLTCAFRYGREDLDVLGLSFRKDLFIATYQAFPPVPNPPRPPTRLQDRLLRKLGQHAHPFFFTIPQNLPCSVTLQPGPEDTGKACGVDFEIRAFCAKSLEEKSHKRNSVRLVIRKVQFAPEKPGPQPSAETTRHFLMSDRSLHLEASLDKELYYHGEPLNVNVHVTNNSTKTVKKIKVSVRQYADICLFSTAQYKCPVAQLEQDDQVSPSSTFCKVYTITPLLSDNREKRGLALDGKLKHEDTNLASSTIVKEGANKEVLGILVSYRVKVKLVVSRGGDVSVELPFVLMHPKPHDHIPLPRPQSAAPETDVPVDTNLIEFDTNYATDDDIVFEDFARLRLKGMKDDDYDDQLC

[3] = mouse, microsomes
Description: Microsomal stability was determined using mouse hepatic microsomes and LC/MS detections over time (Zhou et al., 2013, 22).

Compound | EC50 (kappa opioid receptor [2]) [nM] | β-arrestin2 Emax (% U60) (kappa opioid receptor [2]) | Microsomal Stability [3] [min] | also measured
Cc1ccc(CCc2nnc(-c3ccccn3)n2-c2ccc3ccccc3c2)cc1C(F)(F)F [Compound 12a] |  |  |  | EC50 (kappa opioid receptor [1]): 10300 nM
Cc1ccc(CCc2nnc(-c3ccccn3)n2CC2CCCO2)cc1C(F)(F)F (stereo not drawn) [Compound 17a] | 5430 |  |  | EC50 (kappa opioid receptor [1]): 104 nM
Cc1ccc(CCc2nnc(-c3ccc4ccccc4n3)n2Cc2cccs2)cc1C(F)(F)F [Compound 22] | > 10000 | ~100 | 2.2 | 
Cc1ccc(CCc2nnc(-c3ccccn3)n2Cc2ccccc2)cc1C(F)(F)F [Compound 8] | 6340 | 180 | 0.9 | 
c1ccc(-c2nnc(CCc3cccc4ccccc34)n2Cc2cccs2)nc1 [Compound 35] | > 10000 | 67 | 1 | 
Cc1cc(CCc2nnc(-c3ccccn3)n2Cc2cccs2)ccc1C(F)(F)F [Compound 39a] |  |  |  | EC50 (kappa opioid receptor [1]): 3.1 nM
OC(Cc1nnc(-c2ccccn2)n1Cc1ccco1)c1ccccc1 (stereo not drawn) [Compound 45] |  |  | 20.7 | 
Cc1ccc(CCc2nnc(-c3ccccn3)n2-c2cccc3ccccc23)cc1C(F)(F)F [Compound 11a] |  |  |  | EC50 (kappa opioid receptor [1]): 2650 nM
FC(F)(Cc1ccccc1)c1nnc(-c2ccccn2)n1Cc1ccco1 [Compound 44] |  |  |  | KOR potency / activity in words (SAR commentary) (kappa opioid receptor [1]): completely inactive
c1ccc(-c2nnc(CCc3ccc4ccccc4c3)n2Cc2cccs2)nc1 [Compound 36] |  |  | 2.4 | 
FC(F)(F)c1ccccc1CCc1nnc(-c2ccccn2)n1Cc1cccs1 [Compound 31] | > 10000 | 44 | 3.0 | 
Cc1ccc(CCc2nnc(-c3ccncn3)n2Cc2cccs2)cc1C(F)(F)F [Compound 18] | > 10000 |  | 1.1 | β-arrestin2 maximum stimulation observed at 10 μM (starred Emax cells / % max at 10 uM) (kappa opioid receptor [2]): 66* % U60
Cc1ccc(CCc2nnc(-c3ncccn3)n2Cc2cccs2)cc1C(F)(F)F [Compound 17] | 2180 | 150 | 0.8 | 
COc1ccc(CCc2nnc(-c3ccccn3)n2Cc2cccs2)cc1 [Compound 25] | > 10000 | 124 | 5.6 | 
Cc1ccc(CCc2nnc(-c3ccccc3)n2Cc2cccs2)cc1C(F)(F)F [Compound 14] | > 10000 | ~100 | 1.8 | 
Cc1ccc(CCc2nnc(-c3ccccn3)n2CC2CC2)cc1C(F)(F)F [Compound 13] |  |  | 0.9 | 
Cc1ccc(CCc2nnc(-c3ccccn3)n2-c2ccccc2)cc1C(F)(F)F |  |  |  | KOR potency / activity in words (SAR commentary) (kappa opioid receptor [1]): potency was completely lost
Cc1ccc(CCc2nnc(-c3ncccc3C)n2Cc2cccs2)cc1C(F)(F)F [Compound 19] | 1550 | 117 | 1.1 | 
Cc1ccc(CCc2nnc(-c3ccc4ccccc4c3)n2Cc2cccs2)cc1C(F)(F)F [Compound 21] |  |  | 1.3 | β-arrestin2 maximum stimulation observed at 10 μM (starred Emax cells / % max at 10 uM) (kappa opioid receptor [2]): 16* % U60
Cc1ccc(CCc2nnc(-c3ccccn3)n2CCc2ccccc2)cc1C(F)(F)F [Compound 13a] |  |  |  | EC50 (kappa opioid receptor [1]): 1940 nM
c1ccc(-c2nnc(C3CCc4ccccc4C3)n2Cc2cccs2)nc1 (stereo not drawn) [Compound 37] |  |  | 13.1 | 
Cc1ccc(CCc2nnc(-c3cccc4ccccc34)n2Cc2cccs2)cc1C(F)(F)F [Compound 20] | > 10000 |  | 0.9 | β-arrestin2 maximum stimulation observed at 10 μM (starred Emax cells / % max at 10 uM) (kappa opioid receptor [2]): 76* % U60
Cc1ccc(/C=C/c2nnc(-c3nccn3C)n2Cc2ccco2)cc1C(F)(F)F [51 (UNC9012)] |  |  |  | β-arrestin2 maximum stimulation observed at 10 μM (starred Emax cells / % max at 10 uM) (kappa opioid receptor [2]): 17.3 (% max at 10 uM) % U60; GTPγS Emax (% U60) (kappa opioid receptor [1]; relative to U69,593 = 100% Emax): 76.1 % U60
Cc1ccc(CCc2nnc(-c3ccccn3)n2Cc2ncco2)cc1C(F)(F)F [Compound 5a] | 532 |  |  | EC50 (kappa opioid receptor [1]): 38 nM
